# In PubChem BioAssay AID328 (DTP/NCI, 2004):
# Several values for one entry are separate records, joined by “and”; a condition that tells them apart may be missing. Identical values can stand only once. Toxic doses and inconclusive results are not listed.
# How the values were obtained:
# [1] = system: BDF1 mice, P388 leukemia ip; test: NCI In Vivo Anticancer Drug Screen. Data for tumor model P388 Leukemia (intraperitoneal) in B6D2F1 (BDF1) mice; conditions: endpoint: mean survival time, higher = longer survival
# In short: (§1)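 Mice carrying the transplantable tumour receive compound or vehicle. Survival is followed in each arm, and the treated measure is divided by the vehicle measure.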
# [2] = system: BDF1 mice, P388 leukemia ip, median survival T/C; test: as above; conditions: endpoint: median survival time, higher = longer survival
# In short: as §1
# [3] = dose: 100.0 mg/kg/injection, schedule: Q04DX003 (ip), vehicle: saline
# [4] = dose: 200.0 mg/kg/injection, schedule: Q04DX003 (ip), vehicle: saline
# [5] = dose: 50.0 mg/kg/injection, schedule: Q01DX009 (ip), vehicle: Klucel (hydroxypropylcellulose) (HPC)
# [6] = dose: 100.0 mg/kg/injection, schedule: Q01DX009 (ip), vehicle: saline with Tween-80
# [7] = dose: 200.0 mg/kg/injection, schedule: Q01DX009 (ip), vehicle: saline with Tween-80
# [8] = dose: 25.0 mg/kg/injection, schedule: Q01DX009 (ip), vehicle: saline
# [9] = dose: 100.0 mg/kg/injection, schedule: Q04DX003 (ip), vehicle: Klucel (hydroxypropylcellulose) (HPC)
# [10] = dose: 200.0 mg/kg/injection, schedule: Q04DX003 (ip), vehicle: Klucel (hydroxypropylcellulose) (HPC)
# [11] = dose: 50.0 mg/kg/injection, schedule: Q01DX009 (ip), vehicle: saline with Tween-80
# [12] = dose: 100.0 mg/kg/injection, schedule: Q01DX009 (ip), vehicle: saline
structure (smiles),measurement,setting,value
CC1(C)C(=O)C(O)=C[C@H]2C1=CC[C@@H]1[C@]2(C)C(=O)C[C@]2(C)[C@@H]([C@@](C)(O)C(=O)CC(O)C(C)(C)O)C(O)C[C@@]12C (stereo partly specified),T/C,"[1]; dose: 18.0 mg/kg/injection, schedule: Q01DX010 (ip), vehicle: carboxymethylcellulose (CMC)",99 % of control
C/C=C/c1cc2c(c(=O)o1)C(=O)[C@@H](O)[C@H](C)O2,T/C,"[2]; dose: 11.0 mg/kg/injection, schedule: Q01DX010 (ip), vehicle: other",120 % of control
same,T/C,"[2]; dose: 25.0 mg/kg/injection, schedule: Q01DX010 (ip), vehicle: other",154 % of control
same,T/C,"[2]; dose: 50.0 mg/kg/injection, schedule: Q01DX010 (ip), vehicle: other",150 % of control
same,T/C,"[2]; dose: 100.0 mg/kg/injection, schedule: Q01DX010 (ip), vehicle: other",150 % of control
same,T/C,"[1]; dose: 25.0 mg/kg/injection, schedule: Q01DX010 (ip), vehicle: carboxymethylcellulose (CMC)",119 % of control
CCOC(CN(Cc1ccc(OCc2ccccc2)c(OC)c1)S(=O)(=O)c1ccc(C)cc1)OCC,T/C,"[1]; dose: 25.0 mg/kg/injection, schedule: Q01DX009 (ip), vehicle: water",93 % of control
same,T/C,"[1]; dose: 50.0 mg/kg/injection, schedule: Q01DX009 (ip), vehicle: water",97 % of control
same,T/C,"[1]; dose: 100.0 mg/kg/injection, schedule: Q01DX009 (ip), vehicle: water",93 % of control
same,T/C,"[1]; dose: 200.0 mg/kg/injection, schedule: Q01DX009 (ip), vehicle: water",90 % of control
CC[CH2][Sn]([CH2]CC)([CH2]CC)[O][Sn]([CH2]CC)([CH2]CC)[CH2]CC,T/C,"[2]; dose: 0.25 mg/kg/injection, schedule: Q01DX009 (ip), vehicle: saline with Tween-80",90 % of control
same,T/C,"[2]; dose: 0.25 mg/kg/injection, schedule: Q04DX003 (ip), vehicle: saline with Tween-80",100 % of control
same,T/C,"[2]; dose: 0.5 mg/kg/injection, schedule: Q01DX009 (ip), vehicle: saline with Tween-80",95 % of control
same,T/C,"[2]; dose: 0.5 mg/kg/injection, schedule: Q04DX003 (ip), vehicle: saline with Tween-80",104 % of control
same,T/C,"[2]; dose: 1.0 mg/kg/injection, schedule: Q01DX009 (ip), vehicle: saline with Tween-80",100 % of control
same,T/C,"[2]; dose: 1.0 mg/kg/injection, schedule: Q04DX003 (ip), vehicle: saline with Tween-80",100 % of control
O=S(=O)(O)c1cc(O)c2cc(Nc3ccccc3)ccc2c1,T/C,"[2]; dose: 50.0 mg/kg/injection, schedule: Q04DX003 (ip), vehicle: saline",104 % of control
same,T/C,[2]; [3],113 % of control
same,T/C,[2]; [4],109 % of control
Cc1noc(-c2ccc([N+](=O)[O-])o2)n1,T/C,[2]; [5],93 % of control
same,T/C,"[2]; dose: 100.0 mg/kg/injection, schedule: Q01DX009 (ip), vehicle: Klucel (hydroxypropylcellulose) (HPC)",101 % of control
O=C(O)CCN1C(=O)c2ccccc2C1=O,T/C,[2]; [6],90 % of control
same,T/C,[2]; [7],100 % of control
C=[CH][Sn]([CH]=C)([CH]=C)[O]C(C)=O,T/C,"[2]; dose: 1.56 mg/kg/injection, schedule: Q01DX009 (ip), vehicle: Klucel (hydroxypropylcellulose) (HPC)",101 % of control
same,T/C,"[2]; dose: 1.56 mg/kg/injection, schedule: Q04DX003 (ip), vehicle: Klucel (hydroxypropylcellulose) (HPC)",91 % of control
same,T/C,"[2]; dose: 3.12 mg/kg/injection, schedule: Q01DX009 (ip), vehicle: Klucel (hydroxypropylcellulose) (HPC)",101 % of control and 109 % of control
same,T/C,"[2]; dose: 3.12 mg/kg/injection, schedule: Q04DX003 (ip), vehicle: Klucel (hydroxypropylcellulose) (HPC)",92 % of control
same,T/C,"[2]; dose: 6.25 mg/kg/injection, schedule: Q01DX009 (ip), vehicle: Klucel (hydroxypropylcellulose) (HPC)",110 % of control and 117 % of control
same,T/C,"[2]; dose: 6.25 mg/kg/injection, schedule: Q04DX003 (ip), vehicle: Klucel (hydroxypropylcellulose) (HPC)",94 % of control and 101 % of control
same,T/C,"[2]; dose: 12.5 mg/kg/injection, schedule: Q01DX009 (ip), vehicle: Klucel (hydroxypropylcellulose) (HPC)",153 % of control and 160 % of control
same,T/C,"[2]; dose: 12.5 mg/kg/injection, schedule: Q01DX009 (ip), vehicle: saline",153 % of control and 162 % of control
same,T/C,"[2]; dose: 12.5 mg/kg/injection, schedule: Q04DX003 (ip), vehicle: Klucel (hydroxypropylcellulose) (HPC)",104 % of control and 106 % of control
same,T/C,[2]; [8],86 % of control
NC(=O)c1ccc(Cl)c(Cl)c1,T/C,"[2]; dose: 100.0 mg/kg/injection, schedule: Q04DX003 (ip), vehicle: other",116 % of control
same,T/C,"[2]; dose: 200.0 mg/kg/injection, schedule: Q04DX003 (ip), vehicle: other",122 % of control
CC(C)=CCCC(C)=C(C(=O)O)C(=O)O,T/C,[2]; [9],113 % of control
same,T/C,[2]; [10],111 % of control
same,T/C,"[2]; dose: 400.0 mg/kg/injection, schedule: Q04DX003 (ip), vehicle: Klucel (hydroxypropylcellulose) (HPC)",110 % of control
O=C(c1cccs1)C1Cc2ccccc2C1=O (stereo unspecified),T/C,[2]; [6],100 % of control
same,T/C,[2]; [7],116 % of control
same,T/C,"[2]; dose: 400.0 mg/kg/injection, schedule: Q01DX009 (ip), vehicle: saline with Tween-80",100 % of control
CCCCCC#CC1OC12CCCCC2 (stereo unspecified),T/C,[2]; [11],124 % of control
same,T/C,[2]; [6],119 % of control
same,T/C,[2]; [7],102 % of control
Cc1ccccc1C(c1ccccc1C)c1ccccc1C(=O)O,T/C,"[2]; dose: 100.0 mg/kg/injection, schedule: Q01DX001 (ip), vehicle: Klucel (hydroxypropylcellulose) (HPC)",113 % of control
same,T/C,[2]; [12],100 % of control
same,T/C,[2]; [3],91 % of control
same,T/C,"[2]; dose: 200.0 mg/kg/injection, schedule: Q01DX001 (ip), vehicle: Klucel (hydroxypropylcellulose) (HPC)",109 % of control
same,T/C,"[2]; dose: 200.0 mg/kg/injection, schedule: Q01DX009 (ip), vehicle: saline",104 % of control
same,T/C,[2]; [4],100 % of control
same,T/C,"[2]; dose: 400.0 mg/kg/injection, schedule: Q01DX001 (ip), vehicle: Klucel (hydroxypropylcellulose) (HPC)",109 % of control
same,T/C,"[2]; dose: 400.0 mg/kg/injection, schedule: Q01DX009 (ip), vehicle: saline",95 % of control
same,T/C,"[2]; dose: 400.0 mg/kg/injection, schedule: Q04DX003 (ip), vehicle: saline",100 % of control
CCOC(=O)c1cccc(OP(=O)(N(C)C)N(C)C)c1,T/C,[2]; [11],108 % of control
same,T/C,[2]; [6],116 % of control
C[n+]1c(/C=C/c2ccc(O)c3ncccc23)[se]c2ccccc21,T/C,"[2]; dose: 0.25 mg/kg/injection, schedule: Q01DX010 (ip), vehicle: saline",104 % of control
same,T/C,"[2]; dose: 0.5 mg/kg/injection, schedule: Q01DX010 (ip), vehicle: saline",118 % of control
same,T/C,"[2]; dose: 1.0 mg/kg/injection, schedule: Q01DX010 (ip), vehicle: saline",104 % of control
same,T/C,"[2]; dose: 1.5 mg/kg/injection, schedule: Q01DX010 (ip), vehicle: acetone",165 % of control
same,T/C,"[2]; dose: 3.0 mg/kg/injection, schedule: Q01DX010 (ip), vehicle: acetone",165 % of control
same,T/C,"[2]; dose: 3.0 mg/kg/injection, schedule: Q01DX010 (ip), vehicle: saline",122 % of control
same,T/C,"[2]; dose: 6.0 mg/kg/injection, schedule: Q01DX010 (ip), vehicle: acetone",185 % of control
same,T/C,"[2]; dose: 25.0 mg/kg/injection, schedule: Q01DX010 (ip), vehicle: saline",118 % of control
COc1cc(NCCCCCCCNC(C)C)c2nccc(C)c2c1,T/C,"[2]; dose: 3.13 mg/kg/injection, schedule: Q01DX009 (ip), vehicle: saline",105 % of control
same,T/C,"[2]; dose: 6.25 mg/kg/injection, schedule: Q01DX009 (ip), vehicle: saline",98 % of control and 115 % of control
same,T/C,[2]; [8],109 % of control and 116 % of control
Cc1cc(C)n(CO)n1,T/C,"[2]; dose: 25.0 mg/kg/injection, schedule: Q01DX009 (ip), vehicle: Klucel (hydroxypropylcellulose) (HPC)",96 % of control
same,T/C,[2]; [5],107 % of control
same,T/C,[2]; [9],108 % of control
same,T/C,[2]; [10],100 % of control
C[C@]12CCC(=O)C[C@@H]1CC[C@@H]1[C@@H]2CC[C@]2(C)[C@@H](OC(=O)N(CCCl)N=O)CC[C@@H]12,T/C,[2]; [12],100 % of control
